Results on one molecule are retold here after US20140220694A1, “METHODS AND COMPOSITIONS RELATING TO PLATELET SENSITIVITY” (ELECTROPHORETICS LIMITED, priority 2011, published 2014).

What all share (format): in vivo, human
The subject of one assay is Integrin beta 3. In words: Integrin beta 3 isotyping SRM assay, post:pre aspirin ratio. The protocol:
50 ml of whole blood was drawn from subjects into trisodium citrate (final concentration 0.32%) from the antecubital vein using a Butterfly® 19-guage siliconised needle. Blood was centrifuged (20 min, 200×g, room temperature (RT)) to obtain platelet rich plasma (PRP) that was acidified with the addition of 0.3M citric acid (target pH 6.5). Further centrifugation (15 min, 1200×g, RT) produced the platelet pellet that was immediately re-suspended in citrate wash buffer (refer to Appendix 1 for composition) and prostaglandin E1 (Sigma) was added to a final concentration of 10 nM. Removal of residual red cells and monocytes was performed by further centrifugation (3 min, 200×g, RT) and decanting of the platelet rich supernatant. Final centrifugation (15 min, 1200×g, RT) produced the washed platelet pellet that was stored at −80° C. The washed platelet pellet was re-suspended in lysis buffer (NaCl 150 mM, Tris-base 32 mM, NaF 50 mM, Na orthovanadate 1 mM to which 1 ml ethylenediaminetetraacetic acid (EDTA; 0.1M stock solution) and 1 ml Triton-X 100 was added prior to adjusting to pH 7.6 with conc. HCL and volume made up to 100 ml) containing protease inhibitor cocktail (Sigma Aldrich, UK) and placed on ice for 30 min, before agitation on ice for a further 5 min. The sample was centrifuged (5 min, 9000×g, 4° C.) to remove cellular debris. The supernatant was stored at −80° C. Aspirin sensitivity was assessed in individuals prescribed aspirin for secondary prevention using a combination of functional and biochemical assays. […] The amount of endogenous (light) peptide is calculated based on the peak area ratio relative to the 100 fmol spiked heavy peptide. For individuals where samples were available pre and post treatment with Aspirin, a post to pre ratio was calculated to assess any changes in peptide levels. […] For the healthy normal cohort, pre and post aspirin samples were not available and the basal pg measured peptides level per μg total protein were reported.

Assay [1] relates to ITGB3 (Glycoprotein IIIa). In words: Western blotting of platelet lysates with N- and C-terminal specific antibodies. Conditions: irrespective of platelet responsiveness status. The protocol: Platelet lysates from subjects (10 μg each) were mixed with equal volumes of Laemmli sample buffer (2×) (125 mM Tris-base, 4% SDS, 20% glycerol, 4% β-mercaptoethanol, 0.04% bromophenol blue), and subsequently loaded onto a 12.5% SDS-PAGE gel. Proteins were transferred onto PVDF membranes, and detected using specific antibodies as follows. Paired blots were incubated with Anti-GP111a C-terminal specific (Santa Cruz Biotechnology, Item code sc-6626, C-20) or anti GP111a N-terminal specific (Santa Cruz Biotechnology, Item code sc-6627, N-20) respectively. Bands were scanned and densitometric analysis performed using Image J system (a Java based image processing program developed by the National Institutes of Health, Bethesda, USA).
A general note: Immunoblotting shows a protein as a band on a membrane.

In another assay the test system is integrin beta 3 (ITGB3). In words: SRM analysis of TMT-labelled platelet peptides, post:pre aspirin ratios. The protocol: Peptides identified in the discovery study from candidate proteins were taken forward if they were proteotypic and had characteristics suitable for robust SRM quantitation i.e. fully hydrolysed, contained no known modifications (either in vivo or experimental) and had suitable MS/MS fragments for Q3 selection. Up to six peptides per protein were selected for targeted quantitation (Table 2). The m/z of Q1 and Q3 transitions for selected peptides were calculated either from data-dependent sequencing in the discovery study or from in silico analysis using Pinpoint (ThermoFisher). The theoretical optimal collision energies for each transitions were also calculated using the discovery data and Pinpoint (ThermoFisher). Peptide dection and quantitation was based on time-alignment of multiple transitions per peptide (up to six transitions per peptide). Only peptides with consistant detection of multiple time-aligned transitions in all subject samples were used in the final quantitation. The final SRM method was then applied to the quantitative analysis of the experimental sample set. TMT-labeled subject samples (70/90 μg, check) were reduced, alkylated, digested in-solution and purified by RP and SCX chromatography. […] The SRM peak area for each pre-aspirin sample was measured relative to the SRM peak area for each post-aspirin sample. […]

The test system of assay [2] is platelet protein biomarkers of aspirin resistance. Nature of the assay: Aspirin resistance biomarker SRM method (six biomarkers). As to conditions: two aspirin resistant and 10 aspirin sensitive platelet digests. The source says: The six markers are Integrin beta 3 (total) and Integrin beta 3 isoform A, heat shock protein A5, pyruvate kinase isozyme M1/M2, RAB GDP1 alpha & prostaglandin G/H synthase. For each marker two or three proteotypic tryptic peptides were selected and heavy isotope standard synthetic peptides were purchased from a commercial supplier (Thermo Scientific, Belgium). Platelet preparations from Example 3 were also used in the SRM method for simultaneous measurement of six biomarkers of aspirin resistance. Prior to analysis using Platelet Aspirin Resistance assay version 2.0 samples were resuspended in a solution containing 5 fmol/μL of each of the heavy AQUA peptides (See table 2) in the method and 200 μg/mL glucagon. Prior to SRM samples were resolved by RP-chromatography over a 9 minute ACN gradient (5-30%) in 0.2% formic acid at 100 μl/min. The Platelet Aspirin Resistance assay version 2.0 contains 96 SRM transitions, covering 17 peptides from 5 proteins. The SRM cycle time was 2 seconds with retention time windows used to maximise the scan time given to each SRM transition. Including washes and time to equalibrate the column, the total run time of the method was 30 minutes.

The test system of a further assay is platelets. In words: TMTsixplex GeLC-MS/MS discovery proteomics of platelet extracts pre and post aspirin treatment. As to conditions: for peptide/protein expression after aspirin treatment: 300 mg daily, 1 month oral. The protocol: To address the shortage of sensitive, robust and reliable markers of aspirin resistance the inventors undertook a comparative proteomic study of platelet extracts derived from samples known to be resistant and sensitive following 1 month's oral administration of therapeutic doses of aspirin (300 mg daily).
Briefly, platelets were purified from blood drawn from individuals with functionally documented aspirin resistance (n=2) or sensitivity (n=4). In each case matched samples were drawn pre- and post-aspirin treatment. Proteins were extracted, reduced and alkylated prior to labelling with a sixplex set of isobaric mass tags (TMTsixplex, Proteome Sciences plc; Refer to FIG. 1b). After labelling sets of six samples were pooled according to a randomised schedule and subjected to 1-dimensional SDS-PAGE. Each gel lane was cut into […] and each band subjected to in gel digestion using trypsin prior to analysis by LC-MS/MS to allow protein identification. Relative quantitation of each protein was achieved by comparing the ion intensity and area under the curve for each of the six TMT Reporter Ions and proteins showing a difference in levels between aspirin resistant and sensitive platelets were thus identified.
From 94 healthy subjects, 2 subjects were determined as aspirin resistance using measurements of platelet aggregommetry (agonist's arachidonic acid and ADP) and 11-dehydroTXB2 in urine. To be defined as truly aspirin resistant subjects must have an abnormal response with both measures. Subjects took 300 mg aspirin daily for 1 month.
Preparation of Platelet Samples 60 ml whole blood was obtained from subjects from the antecubital vein using a Butterfly®19-gauge needle, and collected into NaCl trisodium citrate (final concentration 0.38%). […]
Prior to analysis by GeLC-MS/MS 30 μg of each sample within a TMTsixplex experiment were mixed 1:1:1:1:1:1. The combined sample was analysed by GeLC-MS/MS with the entire gel lane being excised into 15 sections. […]

For the molecule `CC(=O)Oc1ccccc1C(=O)O` [aspirin, acetylsalicyclic acid], the “integrin beta 3 isoform A level after aspirin” value in the assay with Integrin beta 3 (majority of 10 aspirin sensitive patients) is listed as “remained level or decreased”; with Integrin beta 3 (two aspirin resistant patients, 1 month treatment), “expected increase”. The “total integrin beta 3 levels after aspirin” value in the assay with Integrin beta 3 (majority of aspirin sensitive patients) is listed as “remained relatively unchanged”. Also, the “intensity of staining of integrin beta 3 band, N-terminus antibody” value in assay [1] was “consistent pre- and post-aspirin treatment”. The “ITGB3 peptide specific for isoform beta 3A, post:pre aspirin” value with integrin beta 3 (ITGB3) (aspirin resistant compared to aspirin sensitive subjects) was “consistently showed significant changes”. In addition, in the assay on integrin beta 3 (ITGB3) (six subjects pre and post aspirin), the “ITGB3 peptides common to all three isoforms, protein levels after treatment” value is given as “no difference in protein levels”. The “aspirin-dependant expression of integrin beta 3 isoform A, heat shock protein A5, RAB GDP1 alpha, prostaglandin G/H synthase” value in assay [2] is reported as “consistent changes”. For the same molecule, the “aspirin-dependant expression of pyruvate kinase isozyme M1/M2” value in assay [2] is “more variable”. Also, the “levels of vinculin, myosin and talin” value in the assay on platelets (housekeeping proteins used for normalisation) is “not influenced by aspirin treatment”. In addition, the “peptide/protein expression after aspirin treatment” value was “mostly down-regulation of peptide/protein expression” with platelets (platelets from aspirin-resistant subjects) and “remained broadly similar or increased” with platelets (platelets from aspirin-sensitive individuals).
